The test system of data set [1] is heat-induced pain in mice. The data set can be described thus: effect on heat-induced pain in mice (CHEN and BECKMAN). It is filed as in vivo. The settings on record: Mus musculus, po; male mice, oesophageal tube, 1% methylcellulose; read-out: ED^100 (dosage which doubled the reaction time). How it is done: 2. The effect on heat-induced pain in mice was investigated using the method of CHEN and BECKMAN (Science 113, 631 (1951). Male mice with an average weight of 20 g were given the test substances as a trituration in 1% methylcellulose (0.1 ml/10 g of animal by oesophageal tube. From the lengthening of the individual reaction time observed after various doses, the ED^100 was calculated by linear regression analysis as the dosage which doubled the reaction time.

Data set [2] relates to body temperature of normothermic rats. Description: effect on body temperature of normothermic rats. Format: in vivo. As to conditions: Rattus norvegicus, po, oesophageal tube, 1% methylcellulose, rectal temperature, read-out: ED^-1.5° C. (dosage which lowered the body temperature by 1.5° C.). Here is the method:
4. The effect on body temperature was investigated on normothermic rats weighing between 120 and 140 g. The test substances were administered by oesophageal tube as a trituration in 1% methylcellulose (1.0 ml/100 g of animal). From the lowering of rectal temperature observed after various dosages, the ED^-1.5° C. was calculated by linear regression analysis as the dosage which lowered the body temperature by 1.5° C.

Data set [3] relates to mechanically induced pain. Description: effect on mechanically induced pain, tail clamp method (HAFFNER). Format: in vivo. The settings on record: Mus musculus, po, 0.5 h, male mice, oesophageal tube, 1% methylcellulose, 30 minute intervals, read-out: ED^50 (percentage of animals which showed no pain-reaction).
Data set [4] concerns pain of inflammation in rats. Description: effect on the pain of inflammation in rats (RANDALL and SELITTO). Format: in vivo, rat. The settings on record: sc, male rats, oesophageal tube, 1% methylcellulose, after subcutaneous yeast. Here is the method: 1. The effect on the pain of inflammation in rats was tested using the method of RANDALL and SELITTO (Arch. int. Pharmacodyn. 111, 409 (1957)). The test substances were administered to male rats weighing between 100 and 130 g as a trituration in 1% methylcellulose (1.0 ml/100 g of animal) 90 or 135 minutes after subcutaneous administration of yeast by oesophageal tube. From the pain threshold measured 90 or 45 minutes after administration of the various doses, the ED^50 was determined by linear regression analysis as the dosage which raised the pain threshold by 50%. The following

The nature of a further data set: acute toxicity in rats. The settings on record: in vivo, po; rat, both sexes, oesophageal tube, death within 14 days. Here is the method: (§1) 5. The acute toxicity was determined in mice or rats of both sexes with an average weight of 20 g. The test substances were administered by oesophageal tube as a trituration in 1% methylcellulose (0.2 ml/10 g of animal). Wherever possible the LD50 was calculated according to LITCHFIELD and WILCOXON (J. Pharmacol. exp. Therap. 96, 99 (1949)) from the percentage of animals which died within 14 days after receiving various doses.

The nature of the next data set: acute toxicity in mice. As to conditions: in vivo, po; mouse, both sexes, oesophageal tube, death within 14 days; read-out: LD^50 Mouse. Here is the method: as §1
Setting [5] is: 0.75 h, pain threshold 45 minutes after administration, read-out: ED^50 after 45 minutes (dosage which raised the pain threshold by 50%).
Setting [6] is: 1.5 h, pain threshold 90 minutes after administration, read-out: ED^50 after 90 minutes (dosage which raised the pain threshold by 50%).

Molecules are shown by their SMILES. Where two headings read alike, the source gives them in different places.

For `Cc1cc(=O)[nH]c2c1C(=O)CCC2` [Substance D, 4-methyl-7,8-dihydro-2,5(1H,6H)-quinolinedione], the ED100 in data set [1] worked out at 98 mg/kg. Moreover, the ED (-1.5 degC) in data set [2] was determined as 25 mg/kg. The ED50 was 129 mg/kg in data set [3], 21 mg/kg in data set [4] (setting [5]) and 34 mg/kg in data set [4] (setting [6]). The compound further returned an LD50 at 336 h in “acute toxicity in rats” of 1370 mg/kg.

In the case of `Cn1c2c(ccc1=O)C(=O)CCC2` [Substance A, 1-methyl-7,8-dihydro-2,5(1H,6H)-quinolinedione], the ED100 in data set [1] was found to be 71 mg/kg. In addition, the ED (-1.5 degC) in data set [2] is 29 mg/kg. Also, the results for the ED50 in data set [3], in data set [4] (setting [5]) and in data set [4] (setting [6]) were 80 mg/kg, 8.7 mg/kg and 8.1 mg/kg, respectively. Also, the LD50 at 336 h in “acute toxicity in mice” worked out at 767 mg/kg; in the data set “acute toxicity in rats” it was 489 mg/kg.

For the compound `CCCCn1c2c(c(C)cc1=O)C(=O)CCC2` [Substance H, 1-n-butyl-4-methyl-7,8-dihydro-2,5(1H,6H)-quinolinedione], in data set [1], the ED100 turned out to be 101 mg/kg. Besides, the ED (-1.5 degC) in data set [2] stood at 36 mg/kg. The results for the ED50 in data set [3] and in data set [4] (setting [6]) were 50 mg/kg and 19.1 mg/kg, respectively.

Take `CC1CC2=C(CCCC2=O)NC1=O` (stereo not drawn) [Substance B, 3-methyl-3,4,7,8-tetrahydro-2,5(1H,6H)-quinolinedione]: in data set [1], the ED100 amounted to 155 mg/kg. Further, the ED (-1.5 degC) in data set [2] was 35 mg/kg. Further, the ED50 in data set [3] was found to be 100 mg/kg; in data set [4] (setting [5]) it was 37 mg/kg; in data set [4] (setting [6]), 39 mg/kg. Also, the LD50 at 336 h in the data set “acute toxicity in mice” stood at 1220 mg/kg; in “acute toxicity in rats” it was 659 mg/kg.

In the case of `Cc1cc2c([nH]c1=O)CCCC2=O` [Substance E, 3-methyl-7,8-dihydro-2,5(1H,6H)-quinolinedione], the ED100 in data set [1] turned out to be 135 mg/kg. Also, the ED (-1.5 degC) in data set [2] was found to be 34 mg/kg. The figures for the ED50 in data set [3], in data set [4] (setting [5]) and in data set [4] (setting [6]) were 102 mg/kg, 31 mg/kg and 36 mg/kg, respectively. Further, the LD50 at 336 h in the data set “acute toxicity in mice” is 825 mg/kg.

As to `CCN1C(=O)CCC2=C1CCCC2=O` [Substance I, 1-ethyl-3,4,7,8-tetrahydro-2,5(1H,6H)-quinolinedione], the ED100 in data set [1] stood at 70 mg/kg. Also, the ED (-1.5 degC) in data set [2] was 22 mg/kg. In addition, the ED50 in data set [3] was 55 mg/kg; in data set [4] (setting [5]), 13 mg/kg; in data set [4] (setting [6]) it was 16 mg/kg.

As for `CCn1c2c(c(C)cc1=O)C(=O)CCC2` [Substance G, 1-ethyl-4-methyl-7,8-dihydro-2,5(1H,6H)-quinolinedione], the ED100 in data set [1] was determined as 59 mg/kg. The ED (-1.5 degC) in data set [2] stood at 11 mg/kg. The ED50 in data set [3] stood at 26 mg/kg; in data set [4] (setting [5]), 5.1 mg/kg; in data set [4] (setting [6]), 5.9 mg/kg.

On to `Cc1cc2c(n(C)c1=O)CCCC2=O` [Substance F, 1,3-dimethyl-7,8-dihydro-2,5(1H,6H)-quinolinedione], for which the ED100 in data set [1] was determined as 109 mg/kg. In addition, the ED (-1.5 degC) in data set [2] stood at 36 mg/kg. For the same compound, the ED50 in data set [3] is 86 mg/kg; in data set [4] (setting [5]), 12.5 mg/kg; in data set [4] (setting [6]), 12.1 mg/kg. Moreover, the figures for the LD50 at 336 h in “acute toxicity in mice” and in the data set “acute toxicity in rats” were 296 mg/kg and 396 mg/kg, respectively.

Turning to `CN1C(=O)CCC2=C1CCCC2=O` [Substance C, 1-methyl-3,4,7,8-tetrahydro-2,5(1H,6H)-quinolinedione], in data set [1], the ED100 was found to be 99 mg/kg. Besides, the ED (-1.5 degC) in data set [2] is 26 mg/kg. Also, the values for the ED50 in data set [3], in data set [4] (setting [5]) and in data set [4] (setting [6]) were 129 mg/kg, 15 mg/kg and 21 mg/kg, respectively. For the same compound, the LD50 at 336 h in the data set “acute toxicity in mice” was 985 mg/kg; in “acute toxicity in rats”, 748 mg/kg.

For the origin of these results see patent US5068334A, “Pharmaceutical compositions containing quinolin-2,5-diones, new quinolin-2,5-diones and processes for the preparation thereof” (Karl Thomae GmbH, priority 1988, dated 1991).
